From patent US10781181B2, “N-((het) arylmethyl)-heteroaryl-carboxamides compounds as plasma kallikrein inhibitors” (Kalvista Pharmaceuticals Limited, priority 2014, dated 2020) come the findings set out here.

Assay type in all cases: biochemical
One experiment addresses Human KLK1 (Homo sapiens (Human), UniProt P06870). Briefly: Determination of the IC50 for KLK1. The conditions noted are these: human KLK1, 25° C., substrate H-DVal-Leu-Arg-AFC. As for the experimental part: Determination of the IC50 for KLK1
Human KLK1 (Callbiochem) was incubated at 25° C. with the fluorogenic substrate H-DVal-Leu-Arg-AFC and various concentrations of the test compound. Residual enzyme activity (initial rate of reaction) was determined by measuring the change in […] at 410 nm and the IC50 value for the test compound was determined.

The target in a further experiment is Human FXIa (Homo sapiens (Human), UniProt P03951). Briefly: Determination of the % inhibition for FXIa. The conditions noted are these: for inhibition at 40 µM: read-out: % Inhibition @ 40 μM (human FXIa). As for the experimental part: Determination of the % Inhibition for FXIa
Human FXIa (Enzyme Research Laboratories) was incubated at 25° C. with the fluorogenic substrate Z-Gly-Pro-Arg-AFC and 40 μM of the test compound. Residual enzyme activity (initial rate of reaction) was determined by measuring the change in […].

Another experiment has as its target Human plasma kallikrein (Homo sapiens (Human), UniProt P03952). Briefly: Determination of the IC50 for plasma kallikrein. The conditions noted are these: read-out: IC50 (human PKal). As for the experimental part:
Determination of the IC50 for Plasma Kallikrein
Human plasma kallikrein (Protogen) was incubated at 25° C. with the fluorogenic substrate H-DPro-Phe-Arg-AFC and various concentrations of the test compound. Residual enzyme activity (initial rate of reaction) was determined by measuring the change in […] at 410 nm and the IC50 value for the test compound was determined.

Setting [1] is: 40 μM of the test compound, human FXIa, 25° C.

Where two headings read alike, the source gives them in different places.

Sequence of Human plasma kallikrein (P03952 391-638): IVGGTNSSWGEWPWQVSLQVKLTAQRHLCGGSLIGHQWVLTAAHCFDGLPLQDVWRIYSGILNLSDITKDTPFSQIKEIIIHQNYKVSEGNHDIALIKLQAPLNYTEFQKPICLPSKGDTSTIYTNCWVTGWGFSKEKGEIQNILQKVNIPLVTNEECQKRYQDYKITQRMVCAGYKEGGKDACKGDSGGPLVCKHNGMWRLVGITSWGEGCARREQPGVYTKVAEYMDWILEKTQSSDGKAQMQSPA
Sequence of Human plasma kallikrein (P03952 20-390 partner): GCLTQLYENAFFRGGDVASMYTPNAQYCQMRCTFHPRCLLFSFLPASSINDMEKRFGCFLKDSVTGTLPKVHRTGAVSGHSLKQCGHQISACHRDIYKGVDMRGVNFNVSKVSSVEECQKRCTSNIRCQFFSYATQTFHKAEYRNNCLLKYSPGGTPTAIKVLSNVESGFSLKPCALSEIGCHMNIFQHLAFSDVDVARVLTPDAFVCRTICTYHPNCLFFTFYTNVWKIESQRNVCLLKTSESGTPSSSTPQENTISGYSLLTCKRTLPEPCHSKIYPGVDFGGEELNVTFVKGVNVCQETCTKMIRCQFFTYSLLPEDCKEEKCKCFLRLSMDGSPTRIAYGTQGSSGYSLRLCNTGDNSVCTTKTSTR
Sequence of Human KLK1 (P06870 25-262): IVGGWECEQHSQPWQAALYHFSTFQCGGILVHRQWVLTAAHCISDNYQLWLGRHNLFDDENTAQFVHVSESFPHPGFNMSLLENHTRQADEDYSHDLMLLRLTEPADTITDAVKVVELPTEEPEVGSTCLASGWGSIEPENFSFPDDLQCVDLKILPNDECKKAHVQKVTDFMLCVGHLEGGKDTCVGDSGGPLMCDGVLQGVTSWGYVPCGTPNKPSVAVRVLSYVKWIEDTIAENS
Sequence of Human FXIa (P03951 388-625 limits assumed): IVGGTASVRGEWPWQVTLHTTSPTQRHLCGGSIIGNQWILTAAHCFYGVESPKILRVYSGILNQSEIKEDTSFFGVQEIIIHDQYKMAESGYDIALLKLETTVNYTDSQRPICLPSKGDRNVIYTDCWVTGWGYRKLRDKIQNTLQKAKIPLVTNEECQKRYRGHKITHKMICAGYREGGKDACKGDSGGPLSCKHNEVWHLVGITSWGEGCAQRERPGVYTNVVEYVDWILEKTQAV
Sequence of Human FXIa (P03951 19-387 partner limits assumed): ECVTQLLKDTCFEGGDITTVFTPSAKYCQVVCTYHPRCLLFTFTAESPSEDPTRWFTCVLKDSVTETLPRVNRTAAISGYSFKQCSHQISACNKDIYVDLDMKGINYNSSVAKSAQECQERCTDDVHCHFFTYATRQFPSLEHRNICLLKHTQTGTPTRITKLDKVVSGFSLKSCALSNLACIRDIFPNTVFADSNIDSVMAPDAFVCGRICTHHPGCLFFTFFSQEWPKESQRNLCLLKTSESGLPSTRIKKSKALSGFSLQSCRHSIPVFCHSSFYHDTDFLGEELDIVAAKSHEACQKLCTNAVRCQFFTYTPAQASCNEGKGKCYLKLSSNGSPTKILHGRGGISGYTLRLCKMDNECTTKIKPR

In the case of `Nc1nn(Cc2ccc(Cn3ccccc3=O)cc2)cc1C(=O)N[C@H]1CCN(c2cccc(Cl)c2)C1=O` [Example 107, 3-amino-N-[(3S)-1-(3-chlorophenyl)-2-oxopyrrolidin-3-yl]-1-({4-[(2-oxopyridin-1-yl)methyl]phenyl}methyl)pyrazole-4-carboxamide], the half-maximal inhibitory concentration (IC50) (commonly the midpoint of a concentration-inhibition curve) against Human KLK1 is > 40 µM; at Human plasma kallikrein, 0.0048 µM. Besides, the inhibition (usually the percentage by which the read-out fell short of the control) at 40 µM at Human FXIa (setting [1]) is 2%.
In the case of `COCc1nn(Cc2ccc(Cn3ccccc3=O)cc2)cc1C(=O)NCCOc1cc(F)cc(Cl)c1` [Example 10, N-[2-(3-chloro-5-fluorophenoxy)ethyl]-3-(methoxymethyl)-1-({4-[(2-oxopyridin-1-yl)methyl]phenyl}methyl)pyrazole-4-carboxamide], the figures for the IC50 at Human KLK1 and at Human plasma kallikrein were > 10 µM and 0.134 µM, respectively. In addition, the inhibition at 40 µM on Human FXIa (setting [1]) was 0%.
As for `Nc1nn(Cc2ccc(Cn3ccccc3=O)cc2)cc1C(=O)NCCOc1cc(Cl)cc(Cl)c1` [Example 31, 3-amino-N-[2-(3,5-dichlorophenoxy)ethyl]-1-({4-[(2-oxopyridin-1-yl)methyl]phenyl}methyl)pyrazole-4-carboxamide], the figures for the half-inhibitory concentration (IC50) against Human KLK1 and on Human plasma kallikrein were > 40 µM and 0.646 µM, respectively. For the same compound, the inhibition at 40 µM at Human FXIa (setting [1]) was 47%.
The corresponding values for `Nc1nn(Cc2ccc(Cn3ccccc3=O)cc2)cc1C(=O)NCCNc1cc(Cl)ccn1` [Example 47, 3-amino-N-{2-[(4-chloropyridin-2-yl)amino]ethyl}-1-({4-[(2-oxopyridin-1-yl)methyl]phenyl}methyl)pyrazole-4-carboxamide] are > 40 µM, 0.0301 µM and 32%.
For `C[C@H](NC(=O)c1cn(Cc2ccc(Cn3ccccc3=O)cc2)nc1N)C(=O)N(C)c1cccc(Cl)c1` [Example 116, (2S)-2-{[3-amino-1-({4-[(2-oxopyridin-1-yl)methyl]phenyl}methyl)pyrazol-4-yl]formamido}-N-(3-chlorophenyl)-N-methylpropanamide] the same measures were > 40 µM, 0.39 µM and 0%.
For `CN(CCNC(=O)c1cn(Cc2ccc(Cn3ccccc3=O)cc2)nc1N)c1cccc(Cl)c1` [Example 41, 3-amino-N-{2-[(3-chlorophenyl)(methyl)amino]ethyl}-1-({4-[(2-oxopyridin-1-yl)methyl]phenyl}methyl)pyrazole-4-carboxamide], the IC50 is > 40 µM at Human KLK1 and 0.264 µM at Human plasma kallikrein. Also, the inhibition at 40 µM at Human FXIa (setting [1]) worked out at 0%.
In the case of `Nc1nn(Cc2ccc(Br)cc2)cc1C(=O)NCCOc1cccc(Cl)c1` [Example 55, 3-amino-1-[(4-bromophenyl)methyl]-N-[2-(3-chlorophenoxy)ethyl]pyrazole-4-carboxamide], the figures for the half-inhibitory concentration (IC50) against Human KLK1 and on Human plasma kallikrein were > 40 µM and 6.41 µM, respectively. Further, the inhibition at 40 µM on Human FXIa turned out to be 80%.
Take `COC(=O)c1ccc(Cn2cc(C(=O)NCCOc3cccc(Cl)c3)c(N)n2)cc1` [Example 58, methyl 4-[(3-amino-4-{[2-(3-chlorophenoxy)ethyl]carbamoyl}pyrazol-1-yl)methyl]benzoate]: the IC50 is > 40 µM at Human KLK1 and 5.42 µM at Human plasma kallikrein. Also, on Human FXIa (setting [1]), the inhibition at 40 µM is 1%.
For `Cc1cc(Cl)cc(OCCNC(=O)c2cn(Cc3ccc(Cn4ccccc4=O)cc3)nc2N)c1` [Example 33, 3-amino-N-[2-(3-chloro-5-methylphenoxy)ethyl]-1-({4-[(2-oxopyridin-1-yl)methyl]phenyl}methyl)pyrazole-4-carboxamide] the same measures were > 40 µM, 0.114 µM and 29%.
For the compound `Cc1ccc(OCCNC(=O)c2cn(Cc3ccc(Cn4ccccc4=O)cc3)nc2N)cc1Cl` [Example 15, 3-amlno-N-[2-(3-chloro-4-methylphenoxy)ethyl]-1-({4-[(2-oxopyridin-1-yl)methyl]phenyl}methyl)pyrazole-4-carboxamide], the IC50 against Human KLK1 is > 40 µM; at Human plasma kallikrein it was 0.0246 µM. Moreover, the “% Inhibition @ 40 μM (human FXIa)” value on Human FXIa (setting [1]) was 1%.
With `Nc1nn(Cc2ccc(Cn3ccccc3=O)cc2)cc1C(=O)NCC(=O)Nc1ccccc1Cl` [Example 3, 2-{[3-amino-1-({4-[(2-oxopyridin-1-yl)methyl]phenyl}methyl)pyrazol-4-yl]formamido}-N-(2-chlorophenyl)acetamide], the concentration for half-maximal inhibition (IC50) against Human KLK1 is > 10 µM; at Human plasma kallikrein, 5.53 µM. Also, the inhibition at 40 µM on Human FXIa (setting [1]) turned out to be 0%.
Regarding `Nc1nn(Cc2cccc(Br)c2)cc1C(=O)NCCOc1cccc(Cl)c1` [Example 56, 3-amino-1-[(3-bromophenyl)methyl]-N-[2-(3-chlorophenoxy)ethyl]pyrazole-4-carboxamide], the IC50 against Human KLK1 was > 40 µM; on Human plasma kallikrein it was 8.49 µM. The inhibition at 40 µM at Human FXIa turned out to be 0%.
Consider `Nc1nn(Cc2ccc(Cn3ccccc3=O)cc2)cc1C(=O)NCCCn1cc(Cl)cn1` [Example 21, 3-amino-N-[3-(4-chloropyrazol-1-yl)propyl]-1-({4-[(2-oxopyridin-1-yl)methyl]phenyl}methyl)pyrazole-4-carboxamide], for which the IC50 on Human KLK1 is > 40 µM; on Human plasma kallikrein it was 2.79 µM. The inhibition at 40 µM at Human FXIa (setting [1]) is 56%.
The corresponding values for `Nc1nn(Cc2ccc(Cn3ccccc3=O)cc2)cc1C(=O)N[C@H]1CCN(Cc2cccc(Cl)c2)C1` [Example 109, 3-amino-N-[(3S)-1-[(3-chlorophenyl)methyl]pyrrolidin-3-yl]-1-({4-[(2-oxopyridin-1-yl)methyl]phenyl}methyl)pyrazole-4-carboxamide] are > 40 µM, 0.384 µM and 0%.
As for `Nc1nn(Cc2nc(Cc3ccccc3)no2)cc1C(=O)NCCOc1cccc(Cl)c1` [Example 90, 3-amino-1-[(3-benzyl-1,2,4-oxadiazol-5-yl)methyl]-N-[2-(3-chlorophenoxy)ethyl]pyrazole-4-carboxamide], the values for the 50% inhibitory concentration (IC50) against Human KLK1 and at Human plasma kallikrein were > 40 µM and > 10 µM, respectively. Further, the inhibition at 40 µM on Human FXIa (setting [1]) came out at 0%.
On to `Nc1nn(Cc2ccc(Oc3ccccc3)cc2)cc1C(=O)NCCOc1cccc(Cl)c1` [Example 71, 3-amino-N-[2-(3-chlorophenoxy)ethyl]-1-[(4-phenoxyphenyl)methyl]pyrazole-4-carboxamide], for which the half-inhibitory concentration (IC50) against Human KLK1 is > 40 µM; at Human plasma kallikrein it was 2.07 µM. The inhibition at 40 µM on Human FXIa (setting [1]) was 0%.
For `Nc1nn(Cc2ccc(Cn3ccccc3=O)cc2)cc1C(=O)N[C@@H]1CCN(Cc2cccc(Cl)c2)C1` [Example 108, 3-amino-N-[(3R)-1-[(3-chlorophenyl)methyl]pyrrolidin-3-yl]-1-({4-[(2-oxopyridin-1-yl)methyl]phenyl}methyl)pyrazole-4-carboxamide], the half-maximal inhibitory concentration (IC50) on Human KLK1 is > 40 µM; on Human plasma kallikrein it was 0.299 µM. In addition, the inhibition at 40 µM at Human FXIa (setting [1]) was 0%.
Take `CCOC(=O)c1cccc(Cn2cc(C(=O)NCCOc3cccc(Cl)c3)c(N)n2)c1` [Example 62, ethyl 3-[(3-amino-4-{[2-(3-chlorophenoxy)ethyl]carbamoyl}pyrazol-1-yl)methyl]benzoate]: the concentration for half-maximal inhibition (IC50) at Human KLK1 is > 40 µM; at Human plasma kallikrein, 7.15 µM. Also, at Human FXIa (setting [1]), the inhibition at 40 µM stood at 4%.
Regarding `Nc1nn(Cc2ccc(Cn3ccccc3=O)cc2)cc1C(=O)NCCOc1cccc(Cl)c1` [Example 1], the values for the IC50 on Human KLK1 and at Human plasma kallikrein were > 10 µM and 0.0029 µM, respectively. Moreover, the inhibition at 40 µM at Human FXIa (setting [1]) turned out to be 2%.
